These results are taken from patent US20060252807A1, “Novel ortho-terphenyl inhibitors of p38 kinase and methods of treating inflammatory disorders” (Kalypsys, Inc., priority 2005, published 2006).

The target of this assay is T1, active p38 alpha enzyme (Upstate Biotechnology) (Homo sapiens, UniProt Q16539).
T1 construct: purchased Upstate Biotechnology
The assay can be described thus: p38α biochemical assay (ATP turnover, luminescent detection, Cambrex PKlight). To be noted: p38α biochemical assay, Table 1 Biological Activity. In short, it runs like this: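 Active p38α phosphorylates MapkapK2 whole protein with 1.4 uM final ATP, 2 h at 30C, in Tris/MOPS buffer with MgCl2, CaCl2, EGTA, EDTA, glycerol, β-mercaptoethanol and 1 mg/ml BSA. Compounds pin-delivered from DMSO; total ATP turnover read by luminescence after PKlight addition.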

Bounds are passed on as bounds.

T1 sequence (Q16539 whole entry): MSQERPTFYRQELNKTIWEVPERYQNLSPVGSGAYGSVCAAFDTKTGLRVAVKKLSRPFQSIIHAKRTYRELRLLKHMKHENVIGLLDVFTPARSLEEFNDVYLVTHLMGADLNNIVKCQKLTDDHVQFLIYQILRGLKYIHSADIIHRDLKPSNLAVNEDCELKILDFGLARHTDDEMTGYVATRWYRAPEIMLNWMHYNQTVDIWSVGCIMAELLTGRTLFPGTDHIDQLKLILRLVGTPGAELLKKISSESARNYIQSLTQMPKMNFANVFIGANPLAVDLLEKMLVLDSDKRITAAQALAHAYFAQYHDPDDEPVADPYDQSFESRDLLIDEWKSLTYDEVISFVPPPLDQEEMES

On to `CCCCOc1ccc(C(=O)N2CCN(Cc3nc(-c4ccc(F)cc4)c(-c4nc(C(=O)NC(C)C)cs4)o3)CC2)cc1` [Example 500], for which the IC50 – broadly, the concentration at which inhibition is half-maximal – is no more than 1 µM.

The compound `CC(C)NC(=O)c1csc(-c2oc(CN3CCN(C(=O)c4cc5cc(Cl)ccc5o4)CC3)nc2-c2ccc(F)cc2)n1` [Example 501] yielded a half-inhibitory concentration (IC50) greater than 1 µM.

Compound `COc1ccc([N+](=O)[O-])c(C(=O)N2CCN(Cc3nc(-c4ccc(F)cc4)c(-c4nc(C(=O)NC(C)C)cs4)o3)CC2)c1` [Example 502] gave a half-maximal inhibitory concentration (IC50) greater than 1 µM.

For the compound `COc1cc(C(=O)N2CCN(Cc3nc(-c4ccc(F)cc4)c(-c4nc(C(=O)NC(C)C)cs4)o3)CC2)cc(OC)c1O` [Example 503], the IC50 was no more than 1 µM.

`CC(C)NC(=O)c1csc(-c2oc(CN3CCN(C(=O)c4ccccc4-c4ccccc4)CC3)nc2-c2ccc(F)cc2)n1` [Example 504] had a half-inhibitory concentration (IC50) of no more than 1 µM.

For `CC(C)NC(=O)c1csc(-c2oc(CN3CCN(C(=O)c4cccc(Br)c4)CC3)nc2-c2ccc(F)cc2)n1` [Example 505], the 50% inhibitory concentration (IC50) was greater than 1 µM.

In turn, `CC(C)NC(=O)c1csc(-c2oc(CN3CCN(C(=O)c4ccc(Br)cc4)CC3)nc2-c2ccc(F)cc2)n1` [Example 506] yielded an IC50 greater than 1 µM.

`CC(C)NC(=O)c1csc(-c2oc(CN3CCN(C(=O)c4cccc(Cl)c4[N+](=O)[O-])CC3)nc2-c2ccc(F)cc2)n1` [Example 507] came in with an IC50 of no more than 1 µM.

Compound `CC(C)NC(=O)c1csc(-c2oc(CN3CCN(C(=O)C4N=CC([N+](=O)[O-])=CC=C4Cl)CC3)nc2-c2ccc(F)cc2)n1` (centres unmarked) [Example 508] displayed an IC50 of no more than 1 µM.

In the case of `CC(C)NC(=O)c1csc(-c2oc(CN3CCN(C(=O)c4ccc([N+](=O)[O-])cc4Cl)CC3)nc2-c2ccc(F)cc2)n1` [Example 509], the 50% inhibitory concentration (IC50) is greater than 1 µM.

As to `CC(C)NC(=O)c1csc(-c2oc(CN3CCN(C(=O)c4ccc(Cl)cc4[N+](=O)[O-])CC3)nc2-c2ccc(F)cc2)n1` [Example 510], the half-maximal inhibitory concentration (IC50) was greater than 1 µM.

Compound `CC(C)NC(=O)c1csc(-c2oc(CN3CCN(C(=O)c4ccc(Cl)c([N+](=O)[O-])c4)CC3)nc2-c2ccc(F)cc2)n1` [Example 511] displayed a concentration for half-maximal inhibition (IC50) greater than 1 µM.

Compound `CC(C)NC(=O)c1csc(-c2oc(CN3CCN(C(=O)c4cc(Cl)ccc4[N+](=O)[O-])CC3)nc2-c2ccc(F)cc2)n1` [Example 512] displayed an IC50 greater than 1 µM.

In the case of `CC(C)NC(=O)c1csc(-c2oc(CN3CCN(C(=O)c4cccc(Br)n4)CC3)nc2-c2ccc(F)cc2)n1` [Example 513], the IC50 is greater than 1 µM.

Take `CC(C)NC(=O)c1csc(-c2oc(CN3CCN(C(=O)c4cncc(Br)c4)CC3)nc2-c2ccc(F)cc2)n1` [Example 514]: the 50% inhibitory concentration (IC50) was greater than 1 µM.

Regarding `CC(C)NC(=O)c1csc(-c2oc(CN3CCN(C(=O)c4cc(F)c(F)cc4[N+](=O)[O-])CC3)nc2-c2ccc(F)cc2)n1` [Example 515], the 50% inhibitory concentration (IC50) was no more than 1 µM.

As to `CC(C)NC(=O)c1csc(-c2oc(CN3CCN(C(=O)Cc4ccc(C(F)(F)F)cc4)CC3)nc2-c2ccc(F)cc2)n1` [Example 516], the IC50 was no more than 1 µM.

Compound `CC(C)Cc1ccc(C(C)C(=O)N2CCN(Cc3nc(-c4ccc(F)cc4)c(-c4nc(C(=O)NC(C)C)cs4)o3)CC2)cc1` (centres unmarked) [Example 517] gave a half-maximal inhibitory concentration (IC50) of no more than 1 µM.

As for `CC(C)NC(=O)c1csc(-c2oc(CN3CCN(C(=O)c4cc(Cl)c(O)c(Cl)c4)CC3)nc2-c2ccc(F)cc2)n1` [Example 518], the IC50 was greater than 1 µM.

`CC(C)NC(=O)c1csc(-c2oc(CN3CCN(C(=O)c4c(F)c(F)c(F)c(F)c4F)CC3)nc2-c2ccc(F)cc2)n1` [Example 519] yielded a concentration for half-maximal inhibition (IC50) of no more than 1 µM.

In the case of `COc1cc(OC)c(C(=O)N2CCN(Cc3nc(-c4ccc(F)cc4)c(-c4nc(C(=O)NC(C)C)cs4)o3)CC2)c(OC)c1` [Example 520], the IC50 is no more than 1 µM.

`COc1cc(OC)c(C(=O)N2CCN(Cc3nc(-c4ccc(F)cc4)c(-c4nc(C(=O)NC(C)C)cs4)o3)CC2)cc1OC` [Example 521] registered an IC50 of no more than 1 µM.

In the case of `COc1cc(C(=O)N2CCN(Cc3nc(-c4ccc(F)cc4)c(-c4nc(C(=O)NC(C)C)cs4)o3)CC2)cc(OC)c1OC` [Example 522], the concentration for half-maximal inhibition (IC50) was greater than 1 µM.

`COc1ccc(C(=O)N2CCN(Cc3nc(-c4ccc(F)cc4)c(-c4nc(C(=O)NC(C)C)cs4)o3)CC2)c(OC)c1OC` [Example 523] registered a half-maximal inhibitory concentration (IC50) of no more than 1 µM.

Regarding `CC(C)NC(=O)c1csc(-c2oc(CN3CCN(C(=O)c4ccccc4Cc4ccccc4)CC3)nc2-c2ccc(F)cc2)n1` [Example 524], the 50% inhibitory concentration (IC50) was no more than 1 µM.

In turn, `CC(C)NC(=O)c1csc(-c2oc(CN3CCN(C(=O)c4cccc(Oc5ccccc5)c4)CC3)nc2-c2ccc(F)cc2)n1` [Example 525] yielded an IC50 greater than 1 µM.

With `CC(C)NC(=O)c1csc(-c2oc(CN3CCN(C(=O)c4ccccc4Oc4ccccc4)CC3)nc2-c2ccc(F)cc2)n1` [Example 526], the IC50 is greater than 1 µM.

Regarding `CC(C)NC(=O)c1csc(-c2oc(CN3CCN(C(=O)c4ccc(Oc5ccccc5)cc4)CC3)nc2-c2ccc(F)cc2)n1` [Example 527], the concentration for half-maximal inhibition (IC50) was no more than 1 µM.

On to `CC(C)NC(=O)c1csc(-c2oc(CN3CCN(C(=O)c4ccc(-c5ccc(O)cc5)cc4)CC3)nc2-c2ccc(F)cc2)n1` [Example 528], for which the IC50 is no more than 1 µM.

Regarding `Cc1cc(C(=O)N2CCN(Cc3nc(-c4ccc(F)cc4)c(-c4nc(C(=O)NC(C)C)cs4)o3)CC2)ccc1Br` [Example 529], the half-inhibitory concentration (IC50) was greater than 1 µM.

For `Cc1ccc(C(=O)N2CCN(Cc3nc(-c4ccc(F)cc4)c(-c4nc(C(=O)NC(C)C)cs4)o3)CC2)cc1Br` [Example 530], the half-maximal inhibitory concentration (IC50) was greater than 1 µM.

Compound `CC(C)NC(=O)c1csc(-c2oc(CN3CCN(C(=O)Cc4ccc(Br)cc4)CC3)nc2-c2ccc(F)cc2)n1` [Example 531] registered a concentration for half-maximal inhibition (IC50) of no more than 1 µM.

Take `CC(C)NC(=O)c1csc(-c2oc(CN3CCN(C(=O)C4CCCN4C(=O)OC(C)(C)C)CC3)nc2-c2ccc(F)cc2)n1` (centres unmarked) [Example 532]: the IC50 was no more than 1 µM.

`CC(C)NC(=O)c1csc(-c2oc(CN3CCN(C(=O)/C=C/c4ccccc4C(F)(F)F)CC3)nc2-c2ccc(F)cc2)n1` [Example 533] displayed an IC50 greater than 1 µM.

Regarding `CCOc1ccc2ccccc2c1C(=O)N1CCN(Cc2nc(-c3ccc(F)cc3)c(-c3nc(C(=O)NC(C)C)cs3)o2)CC1` [Example 534], the IC50 was no more than 1 µM.

The compound `CC(C)NC(=O)c1csc(-c2oc(CN3CCN(C(=O)C(NC(=O)OC(C)(C)C)C(C)C)CC3)nc2-c2ccc(F)cc2)n1` (centres unmarked) [Example 535] displayed a half-inhibitory concentration (IC50) greater than 1 µM.

Regarding `CC(C)NC(=O)c1csc(-c2oc(CN3CCN(C(=O)C(NC(=O)OC(C)(C)C)C(C)C)CC3)nc2-c2ccc(F)cc2)n1` (centres unmarked) [Example 536], the 50% inhibitory concentration (IC50) was greater than 1 µM.

`CC(C)NC(=O)c1csc(-c2oc(CN3CCN(C(=O)CCc4cccc(C(F)(F)F)c4)CC3)nc2-c2ccc(F)cc2)n1` [Example 537]: the half-inhibitory concentration (IC50) is greater than 1 µM.

`CC1=NN(c2ccc(C(=O)N3CCN(Cc4nc(-c5ccc(F)cc5)c(-c5nc(C(=O)NC(C)C)cs5)o4)CC3)cc2)C(=O)C1` [Example 538] came in with an IC50 greater than 1 µM.

In the case of `Cc1nc(Br)sc1C(=O)N1CCN(Cc2nc(-c3ccc(F)cc3)c(-c3nc(C(=O)NC(C)C)cs3)o2)CC1` [Example 539], the half-inhibitory concentration (IC50) was greater than 1 µM.

`CC(C)NC(=O)c1csc(-c2oc(CN3CCN(C(=O)c4c5ccccc5cc5ccccc45)CC3)nc2-c2ccc(F)cc2)n1` [Example 540] displayed an IC50 greater than 1 µM.

`CC(C)NC(=O)c1csc(-c2oc(CN3CCN(C(=O)c4cc(C(C)C)cc(C(C)C)c4O)CC3)nc2-c2ccc(F)cc2)n1` [Example 541] had an IC50 greater than 1 µM.

With `CC(=O)NC(Cc1ccc(O)cc1)C(=O)N1CCN(Cc2nc(-c3ccc(F)cc3)c(-c3nc(C(=O)NC(C)C)cs3)o2)CC1` (centres unmarked) [Example 542], the half-inhibitory concentration (IC50) was greater than 1 µM.

In turn, `CC(C)NC(=O)c1csc(-c2oc(CN3CCN(C(=O)c4c(Cl)cc(Cl)cc4Cl)CC3)nc2-c2ccc(F)cc2)n1` [Example 543] showed an IC50 greater than 1 µM.

As to `COc1cc(C(=O)N2CCN(Cc3nc(-c4ccc(F)cc4)c(-c4nc(C(=O)NC(C)C)cs4)o3)CC2)c([N+](=O)[O-])cc1OC` [Example 544], the IC50 was greater than 1 µM.

Take `CC(C)NC(=O)c1csc(-c2oc(CN3CCN(C(=O)c4ccc(OCc5ccccc5)cc4)CC3)nc2-c2ccc(F)cc2)n1` [Example 545]: the IC50 is greater than 1 µM.

`CC(C)NC(=O)c1csc(-c2oc(CN3CCN(C(=O)CCc4ccccc4Br)CC3)nc2-c2ccc(F)cc2)n1` [Example 546] came in with an IC50 greater than 1 µM.

`CC(C)NC(=O)c1csc(-c2oc(CN3CCN(C(=O)CCc4cccc(Br)c4)CC3)nc2-c2ccc(F)cc2)n1` [Example 547] registered a concentration for half-maximal inhibition (IC50) greater than 1 µM.

As for `CC(C)NC(=O)c1csc(-c2oc(CN3CCN(C(=O)C4CCCCN4C(=O)OC(C)(C)C)CC3)nc2-c2ccc(F)cc2)n1` (centres unmarked) [Example 548], the IC50 is greater than 1 µM.

`CC(C)NC(=O)c1csc(-c2oc(CN3CCN(C(=O)c4ccc(Oc5cccc(O)c5)cc4)CC3)nc2-c2ccc(F)cc2)n1` [Example 549] had an IC50 greater than 1 µM.

Compound `COc1ccc2cc(C(C)C(=O)N3CCN(Cc4nc(-c5ccc(F)cc5)c(-c5nc(C(=O)NC(C)C)cs5)o4)CC3)ccc2c1` (centres unmarked) [Example 550] registered an IC50 greater than 1 µM.

Compound `CC(C)NC(=O)c1csc(-c2oc(CN3CCN(C(=O)C4CN(C(=O)OC(C)(C)C)CCN4)CC3)nc2-c2ccc(F)cc2)n1` (centres unmarked) [Example 551] showed an IC50 greater than 1 µM.

As to `CC(C)NC(=O)c1csc(-c2oc(CN3CCN(C(=O)C4CN(C(=O)OC(C)(C)C)CCN4)CC3)nc2-c2ccc(F)cc2)n1` (centres unmarked) [Example 552], the IC50 is greater than 1 µM.

Consider `COc1ccc(Br)c(C(=O)N2CCN(Cc3nc(-c4ccc(F)cc4)c(-c4nc(C(=O)NC(C)C)cs4)o3)CC2)c1` [Example 553], for which the concentration for half-maximal inhibition (IC50) is greater than 1 µM.

In turn, `CC(C)NC(=O)c1csc(-c2oc(CN3CCN(C(=O)C4CC(O)CN4C(=O)OC(C)(C)C)CC3)nc2-c2ccc(F)cc2)n1` (centres unmarked) [Example 554] gave a 50% inhibitory concentration (IC50) greater than 1 µM.

`CC(C)NC(=O)c1csc(-c2oc(CN3CCN(C(=O)C(C(C)C)N(C)C(=O)OC(C)(C)C)CC3)nc2-c2ccc(F)cc2)n1` (centres unmarked) [Example 555] yielded an IC50 greater than 1 µM.
